Measurements from patent US9738932B2, “Biomarkers for cardiovascular side-effects induced by cox-2 inhibitory compounds” (FIRALIS SAS, priority 2005, dated 2017).
Entries after “also recorded” stand apart in the source; their conditions may differ.

Columns and labels:
Assay type in all cases: in vivo, cynomolgus monkey (Macaca fascicularis)
[1] = tested on: INFγ inducible proteins in serum and plasma; experiment: Rules-Based Medicine (RBM) human MAP multiplex protein profiling in serum and plasma; settings: monkey #A60055
From the text: To obtain biomarkers predicting cardiovascular adverse effect of tested compounds/drugs, expression levels of proteins have been analysed in cynomolgus monkey serum and plasma from the present analysis using human Multi-Analyte Profile (MAP) Technology. Human MAP could be used to measure protein levels of more than 80 antigens in monkey serum and plasma (Rules-Based Medicine Inc (RBM®), Austin, Tex. USA).
Soluble proteins present in serum and plasma of the same monkeys have been measured using a multiplex assay produced by Rules-Based Medicine (RBM®) of Texas.

CXCL10 (IP10) = experiment: ELISA of CXCL10 (IP10) protein in monkey serum and plasma; settings: monkey #A60055
From the text: FIG. 6. ELISA confirmation of CXCL10 (IP10) protein level in monkey serum samples.
These peripheral biomarkers might allow safe use of cox-2 inhibitory compounds in clinics and selection of cox-2 inhibitory follow-up compounds without cardiovascular toxicity.

veins (vascular tissue) = experiment: Histopathological evaluation of tissues of treated monkeys; settings: animal A60055, 50 mg/kg/day oral gavage, two weeks
From the text: Administration of compounds.
Gene expression profiles.

CS(=O)(=O)c1ccc(C2=C(c3ccccc3)C(=O)OC2)cc1 [Vioxx®, rofecoxib]
level of INFγ inducible proteins in serum and plasma (multiplex assay) [1]: increased level
CXCL10 chemokine protein expression by ELISA (CXCL10 (IP10)): Increased expression
histopathological vascular findings (veins (vascular tissue)): focal vascular necrosis in the veins; also recorded: clear sign of vasculitis in veins
